# In ChEMBL document CHEMBL1138133, “6-Acylamino-2-amino-4-methylquinolines as potent melanin-concentrating hormone 1 receptor antagonists: structure-activity exploration of eastern and western parts” (Bioorg Med Chem Lett, 2006):
# Tests used:
# [1] = biological target: T1, Melanin-concentrating hormone receptor 1 (Homo sapiens, UniProt Q99705); assay: Inhibition of human MCH1 receptor by SPA assay
# [2] = biological target: T1, Melanin-concentrating hormone receptor 1; assay: […] human MCH1 receptor expressed in CHO cell by IP3 assay; format: cell-based
# [3] = biological target: T1, Melanin-concentrating hormone receptor 1; assay: Displacement of [125I]MCH from human MCH1 receptor expressed in CHO cell by WC assay; format: cell-based
# T1 sequence (Q99705 whole entry): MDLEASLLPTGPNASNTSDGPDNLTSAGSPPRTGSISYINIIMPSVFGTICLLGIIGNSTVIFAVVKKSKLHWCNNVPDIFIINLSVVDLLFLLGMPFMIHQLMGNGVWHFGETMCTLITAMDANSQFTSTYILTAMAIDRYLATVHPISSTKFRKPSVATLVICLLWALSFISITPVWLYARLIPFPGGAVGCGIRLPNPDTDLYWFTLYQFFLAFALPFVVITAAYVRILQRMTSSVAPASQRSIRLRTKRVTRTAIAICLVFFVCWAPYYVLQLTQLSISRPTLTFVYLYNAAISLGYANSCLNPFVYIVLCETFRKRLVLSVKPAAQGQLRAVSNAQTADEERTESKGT
IC50 [1] [µM],IC50 [2] [µM],IC50 [3] [µM],Compound
2.54,,,Cc1cc(N(C)CCN(C)C)nc2ccc(NC(=O)/C=C/c3ccccc3Cl)cc12
0.048,0.478,0.017,Cc1ccc(/C=C/C(=O)Nc2ccc3nc(N(C)CCN(C)C)cc(C)c3c2)cc1
> 10,,,Cc1cc(N(C)CCN(C)C)nc2ccc(NC(=O)CCc3ccccc3)cc12
0.423,0.393,0.023,Cc1cc(N(C)CCN(C)C)nc2ccc(NC(=O)C3CCC(c4ccc(Cl)cc4)CC3)cc12 (stereo not drawn)
0.21,,,Cc1cc(N(C)CCN(C)C)nc2ccc(NC(=O)c3ccc(Oc4ccccc4)cc3)cc12
0.125,,,Cc1cc(N(C)CCN(C)C)nc2ccc(NC(=O)CNc3ccc(Cl)cc3Cl)cc12
> 10,,,Cc1cc(N(C)CCN(C)C)nc2ccc(NC(=O)COc3ccccc3)cc12
6.97,,,Cc1cc(N(C)CCN(C)C)nc2ccc(NC(=O)/C=C/c3ccccc3)cc12
9.46,,,C/C(=C\c1ccccc1)C(=O)Nc1ccc2nc(N(C)CCN(C)C)cc(C)c2c1
3.28,,,Cc1cc(N(C)CCN(C)C)nc2ccc(NC(=O)Cc3ccc(-c4ccccc4)cc3)cc12
0.568,,,Cc1oc(-c2ccccc2)nc1CC(=O)Nc1ccc2nc(N(C)CCN(C)C)cc(C)c2c1
0.271,,,Cc1cc(N(C)CCN(C)C)nc2ccc(NC(=O)NCc3ccc(Br)cc3)cc12
0.105,,,Cc1cc(N(C)CCN(C)C)nc2ccc(NC(=O)c3ccc(Oc4ccccc4)nc3)cc12
2.1,,,Cc1cc(N(C)CCN(C)C)nc2ccc(NC(=O)c3cc4ccccc4s3)cc12
0.083,0.807,0.033,Cc1cc(N(C)CCN(C)C)nc2ccc(NC(=O)COc3ccc(Cl)cc3)cc12
0.018,0.031,0.0023,Cc1cc(N(C)CCN(C)C)nc2ccc(NC(=O)COc3ccc(OC(F)(F)F)cc3)cc12
2.76,,,Cc1cc(N(C)CCN(C)C)nc2ccc(NC(=O)c3ccc(OC(F)(F)F)cc3)cc12
0.042,0.025,0.0057,Cc1cc(N(C)CCN(C)C)nc2ccc(NC(=O)c3ccc(-c4ccccc4)cc3)cc12
> 10,,,Cc1cc(N(C)CCN(C)C)nc2ccc(NC(=O)C3CC3c3ccccc3)cc12 (racemic)

# The next lines start with the compound.
Compound,IC50 [1] [µM],IC50 [2] [µM],IC50 [3] [µM]
Cc1cc(N2CCCN(C)CC2)nc2ccc(NC(=O)COc3ccc(OC(F)(F)F)cc3)cc12,0.02,0.244,0.0037
Cc1cc(N(C)CCN(C)C)nc2ccc(NC(=O)c3ccc(-c4ccc(C(F)(F)F)cc4)cc3)cc12,,,0.01
Cc1cc(N2C[C@@H](C)N[C@@H](C)C2)nc2ccc(NC(=O)COc3ccc(OC(F)(F)F)cc3)cc12,0.087,,0.044
Cc1cc(N2CCN[C@@H](C)C2)nc2ccc(NC(=O)COc3ccc(OC(F)(F)F)cc3)cc12,0.013,,0.0037
CCN(CC)CCNc1cc(C)c2cc(NC(=O)COc3ccc(OC(F)(F)F)cc3)ccc2n1,0.015,,0.0032
Cc1cc(NCC(C)(C)CN(C)C)nc2ccc(NC(=O)COc3ccc(OC(F)(F)F)cc3)cc12,0.016,,0.0047
Cc1cc(NC2CCN(Cc3ccccc3)CC2)nc2ccc(NC(=O)COc3ccc(OC(F)(F)F)cc3)cc12,0.04,0.091,0.013
Cc1cc(N2CCN[C@H](C)C2)nc2ccc(NC(=O)COc3ccc(OC(F)(F)F)cc3)cc12,0.018,0.1,0.0041
Cc1cc(NCCN2CCOCC2)nc2ccc(NC(=O)COc3ccc(OC(F)(F)F)cc3)cc12,0.0096,,0.0013
Cc1cc(N(C)CCN(C)C)nc2ccc(NC(=O)CCc3ccc(OC(F)(F)F)cc3)cc12,0.04,,0.014
Cc1cc(N2CCN(CCO)CC2)nc2ccc(NC(=O)COc3ccc(OC(F)(F)F)cc3)cc12,0.005,,0.0017
Cc1cc(NCCN(C)C)nc2ccc(NC(=O)COc3ccc(OC(F)(F)F)cc3)cc12,0.018,,0.0053
Cc1cc(N(C)CCN(C)C)nc2ccc(NC(=O)CCc3nc(-c4ccccc4)c(-c4ccccc4)o3)cc12,0.162,,
Cc1cc(NCCN(C(C)C)C(C)C)nc2ccc(NC(=O)COc3ccc(OC(F)(F)F)cc3)cc12,,,0.0071
Cc1cc(NCCN2CCCCC2)nc2ccc(NC(=O)COc3ccc(OC(F)(F)F)cc3)cc12,0.0053,0.033,0.00091
Cc1cc(N2CCCNCC2)nc2ccc(NC(=O)COc3ccc(OC(F)(F)F)cc3)cc12,,,0.002
Cc1cc(N2C[C@@H](C)NC[C@@H]2C)nc2ccc(NC(=O)COc3ccc(OC(F)(F)F)cc3)cc12 (racemic),0.02,,0.0034
